Reference: ChEMBL document CHEMBL1201862, “PubChem BioAssay data set” (2004)
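Exposure lasted 48 hours, with cells grown in 96-well plates and compounds tested at five concentrations. At the GI50, growth is halved.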 The source made the active and inactive calls. No stated cut-off is given here; in the data, active = GI50 up to about 1.1 µM and inactive = higher.

What was measured:
Test in all cases: growth of human tumour cells (NCI), 48 h
KM12 = tested on: KM12
UACC-257 = tested on: UACC-257
Hs-578T = tested on: Hs-578T
CAKI-1 = tested on: CAKI-1
SK-MEL-28 = tested on: SK-MEL-28
BT-549 = tested on: BT-549
MDA-MB-231 = tested on: MDA-MB-231
UO-31 = tested on: UO-31
SK-MEL-2 = tested on: SK-MEL-2
786-0 = tested on: 786-0
NCI-H522 = tested on: NCI-H522
HT-29 = tested on: HT-29
RPMI-8226 = tested on: RPMI-8226
IGROV-1 = tested on: IGROV-1
SK-OV-3 = tested on: SK-OV-3
A549 = tested on: A549
SNB-75 = tested on: SNB-75
SK-MEL-5 = tested on: SK-MEL-5
ACHN = tested on: ACHN
MOLT-4 = tested on: MOLT-4

Cc1cn(C2CC(O)C(COC(N)=O)O2)c(=O)[nH]c1=O (stereo not given)
GI50 (KM12): > 100 µM (inactive) | GI50 (UACC-257): > 100 µM (inactive) | GI50 (Hs-578T): > 100 µM (inactive) | GI50 (CAKI-1): > 100 µM (inactive) | GI50 (SK-MEL-28): > 100 µM (inactive) | GI50 (BT-549): > 100 µM (inactive) | GI50 (MDA-MB-231): > 100 µM (inactive) | GI50 (UO-31): > 100 µM (inactive) | GI50 (SK-MEL-2): > 100 µM (inactive) | GI50 (786-0): > 100 µM (inactive) | GI50 (NCI-H522): > 100 µM (inactive) | GI50 (HT-29): > 100 µM (inactive) | GI50 (RPMI-8226): > 100 µM (inactive) | GI50 (IGROV-1): > 100 µM (inactive) | GI50 (SK-OV-3): > 100 µM (inactive) | GI50 (A549): > 100 µM (inactive) | GI50 (SNB-75): 71.1 µM (inactive) | GI50 (SK-MEL-5): > 100 µM (inactive) | GI50 (ACHN): > 100 µM (inactive) | GI50 (MOLT-4): > 100 µM (inactive)

CCOC(=O)CC[C@H](N)C(=O)N[C@H](Cc1ccc(N(CCCl)CCCl)cc1)C(=O)OCC
GI50 (KM12): 3.32 µM (inactive) | GI50 (UACC-257): 10 µM (inactive) | GI50 (Hs-578T): 2.39 µM (inactive) | GI50 (CAKI-1): 0.154 µM (active) | GI50 (SK-MEL-28): 25.8 µM (inactive) | GI50 (BT-549): 9.25 µM (inactive) | GI50 (MDA-MB-231): 6.55 µM (inactive) | GI50 (UO-31): 0.419 µM (active) | GI50 (SK-MEL-2): 12.3 µM (inactive) | GI50 (786-0): 0.703 µM (active) | GI50 (NCI-H522): 1.41 µM (inactive) | GI50 (HT-29): 3.92 µM (inactive) | GI50 (RPMI-8226): 7.06 µM (inactive) | GI50 (IGROV-1): 2.71 µM (inactive) | GI50 (SK-OV-3): 4.54 µM (inactive) | GI50 (A549): 3.54 µM (inactive) | GI50 (SNB-75): 0.468 µM (active) | GI50 (SK-MEL-5): 45.3 µM (inactive) | GI50 (ACHN): 0.0706 µM (active) | GI50 (MOLT-4): 1.18 µM (inactive)

COc1ccc(C2c3cc4c(cc3OC(NNC(N)=O)C2C)OCO4)cc1 (stereo not given)
GI50 (KM12): 4.78 µM (inactive) | GI50 (UACC-257): 10.2 µM (inactive) | GI50 (Hs-578T): 3.53 µM (inactive) | GI50 (CAKI-1): 6.71 µM (inactive) | GI50 (SK-MEL-28): 7.23 µM (inactive) | GI50 (BT-549): 7.16 µM (inactive) | GI50 (MDA-MB-231): 11.7 µM (inactive) | GI50 (UO-31): 10.6 µM (inactive) | GI50 (SK-MEL-2): 10.8 µM (inactive) | GI50 (786-0): 5.26 µM (inactive) | GI50 (NCI-H522): 3.45 µM (inactive) | GI50 (HT-29): 3.3 µM (inactive) | GI50 (RPMI-8226): 3.3 µM (inactive) | GI50 (IGROV-1): 6.59 µM (inactive) | GI50 (SK-OV-3): 5.26 µM (inactive) | GI50 (A549): 7.73 µM (inactive) | GI50 (SNB-75): 6.22 µM (inactive) | GI50 (SK-MEL-5): 6.85 µM (inactive) | GI50 (ACHN): 8.75 µM (inactive) | GI50 (MOLT-4): 3.94 µM (inactive)

CC(C)[C@](O)(C(=O)OCC1=CC[N+]2([O-])CC[C@@H](O)[C@@H]12)[C@H](C)O (stereo not given in full) [INDICINE N-OXIDE]
GI50 (KM12): > 10000 µM (inactive) | GI50 (UACC-257): > 10000 µM (inactive) | GI50 (Hs-578T): > 5430 µM (inactive) | GI50 (CAKI-1): 6520 µM (inactive) | GI50 (SK-MEL-28): > 10000 µM (inactive) | GI50 (BT-549): > 10000 µM (inactive) | GI50 (MDA-MB-231): > 10000 µM (inactive) | GI50 (UO-31): > 10000 µM (inactive) | GI50 (SK-MEL-2): > 10000 µM (inactive) | GI50 (786-0): > 9270 µM (inactive) | GI50 (NCI-H522): > 7410 µM (inactive) | GI50 (HT-29): > 10000 µM (inactive) | GI50 (RPMI-8226): > 10000 µM (inactive) | GI50 (IGROV-1): > 9330 µM (inactive) | GI50 (SK-OV-3): > 10000 µM (inactive) | GI50 (A549): 5960 µM (inactive) | GI50 (SNB-75): > 9750 µM (inactive) | GI50 (SK-MEL-5): > 7000 µM (inactive) | GI50 (ACHN): 4600 µM (inactive) | GI50 (MOLT-4): 8570 µM (inactive)

Cc1nn(-c2ccccc2)c2c1CC(=O)Nc1ccccc1-2
GI50 (KM12): 0.571 µM (active) | GI50 (UACC-257): 0.555 µM (active) | GI50 (Hs-578T): 0.522 µM (active) | GI50 (CAKI-1): 2.82 µM (inactive) | GI50 (SK-MEL-28): 0.839 µM (active) | GI50 (BT-549): 0.687 µM (active) | GI50 (MDA-MB-231): 1.48 µM (inactive) | GI50 (UO-31): 2.94 µM (inactive) | GI50 (SK-MEL-2): 1.65 µM (inactive) | GI50 (786-0): 0.951 µM (active) | GI50 (NCI-H522): 0.509 µM (active) | GI50 (HT-29): 0.424 µM (active) | GI50 (RPMI-8226): 0.484 µM (active) | GI50 (IGROV-1): 1.6 µM (inactive) | GI50 (SK-OV-3): 1.81 µM (inactive) | GI50 (A549): 1.61 µM (inactive) | GI50 (SNB-75): 0.482 µM (active) | GI50 (SK-MEL-5): 0.379 µM (active) | GI50 (ACHN): 1.05 µM (active) | GI50 (MOLT-4): 0.522 µM (active)

CCCCCOC(=O)C(=O)Nc1[nH]nnc1C(N)=O
GI50 (KM12): > 100 µM (inactive) | GI50 (UACC-257): > 100 µM (inactive) | GI50 (Hs-578T): > 100 µM (inactive) | GI50 (CAKI-1): > 100 µM (inactive) | GI50 (SK-MEL-28): > 100 µM (inactive) | GI50 (BT-549): > 100 µM (inactive) | GI50 (MDA-MB-231): > 100 µM (inactive) | GI50 (UO-31): > 100 µM (inactive) | GI50 (SK-MEL-2): > 100 µM (inactive) | GI50 (786-0): > 100 µM (inactive) | GI50 (NCI-H522): > 100 µM (inactive) | GI50 (HT-29): > 100 µM (inactive) | GI50 (RPMI-8226): > 100 µM (inactive) | GI50 (IGROV-1): > 100 µM (inactive) | GI50 (SK-OV-3): > 100 µM (inactive) | GI50 (A549): > 100 µM (inactive) | GI50 (SNB-75): > 100 µM (inactive) | GI50 (SK-MEL-5): > 100 µM (inactive) | GI50 (ACHN): > 100 µM (inactive) | GI50 (MOLT-4): > 100 µM (inactive)
